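Test compounds were applied to cells in 96-well plates for 48 hours at 5 doses. TGI: concentration producing complete growth inhibition.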 Bounds are passed on as bounds.

In general, TGI refers to the concentration giving total growth inhibition.

Among the test systems are BT-549 breast; DU-145 prostate; HCT-116 colon; HCT-15 colon; HOP-92 NSCLC; HS 578T breast; IGROV1 ovarian; MALME-3M melanoma; MCF7 breast; MDA-MB-435; MDA-N; OVCAR-8 ovarian; RPMI-8226 leukemia; SK-MEL-5 melanoma; SK-OV-3 ovarian; T-47D breast; UACC-257 melanoma; HOP-62 NSCLC; NCI-H226 lung; SNB-19 CNS.
What all share (assay): DTP human tumour cell line panel, 48 h

Regarding `CCC(CCN)(CCN)[N+](=O)[O-]`, the TGI with BT-549 breast, in the assay with DU-145 prostate, in the assay on HCT-116 colon, with HCT-15 colon, in the assay with HOP-92 NSCLC and in the assay on HS 578T breast was > 100 µM in each case. Further, the TGI with IGROV1 ovarian, in the assay with MALME-3M melanoma, in the assay on MCF7 breast, in the assay on MDA-MB-435, in the assay with MDA-N and in the assay with OVCAR-8 ovarian was > 100 µM throughout. In addition, the concentration for total growth inhibition (TGI) in the assay with RPMI-8226 leukemia, in the assay with SK-MEL-5 melanoma, in the assay on SK-OV-3 ovarian, with T-47D breast and with UACC-257 melanoma was > 100 µM each time.
For `Cc1cn([C@H]2C[C@@H]3[C@@H](COC(CCl)N3O)O2)c(=O)[nH]c1=O` (stereo partly specified), the TGI with BT-549 breast, in the assay on DU-145 prostate, in the assay on HCT-116 colon, in the assay with HCT-15 colon, in the assay with HOP-62 NSCLC and in the assay on HS 578T breast was > 100 µM throughout. Moreover, the total growth inhibition concentration (TGI) with IGROV1 ovarian, in the assay on MALME-3M melanoma, in the assay on MCF7 breast, with MDA-MB-435, with MDA-N and with NCI-H226 lung was > 100 µM each time. For the same compound, the TGI with OVCAR-8 ovarian, with RPMI-8226 leukemia, in the assay with SK-MEL-5 melanoma, in the assay with SK-OV-3 ovarian, with SNB-19 CNS and with T-47D breast was > 100 µM in each case. Moreover, the concentration for total growth inhibition (TGI) in the assay with UACC-257 melanoma was > 100 µM.
As to `CNC(=O)C1CCCN1C(=O)C(Cc1cnc[nH]1)NC(=O)C1CCC(=O)N1` (stereo unspecified), the total growth inhibition concentration (TGI) with BT-549 breast, in the assay with DU-145 prostate, with HCT-116 colon, in the assay with HCT-15 colon, in the assay with HOP-62 NSCLC and in the assay with HOP-92 NSCLC was > 100 µM throughout. Besides, the TGI with HS 578T breast, in the assay on IGROV1 ovarian, in the assay with MALME-3M melanoma, with MCF7 breast, in the assay with MDA-MB-435 and with MDA-N was > 100 µM in each case. Also, the TGI in the assay on NCI-H226 lung, with OVCAR-8 ovarian, with RPMI-8226 leukemia, with SK-MEL-5 melanoma, in the assay on SK-OV-3 ovarian and with SNB-19 CNS was > 100 µM in each case. The total growth inhibition concentration (TGI) in the assay on T-47D breast was > 100 µM.
For the compound `Clc1ccc(C2=C(c3ccccc3)C(c3ccc(Cl)cc3)N3C(=N[C@H]4CCCC[C@@H]43)N2)cc1` (stereo partly specified), the TGI with BT-549 breast worked out at 28.6 µM; with DU-145 prostate it was 25.9 µM; with HCT-116 colon, 14.7 µM; with HCT-15 colon, 18.8 µM; with HOP-92 NSCLC, 21.4 µM; with HS 578T breast it was 49.5 µM. For the same compound, the total growth inhibition concentration (TGI) in the assay on IGROV1 ovarian came out at 26.6 µM; in the assay on MALME-3M melanoma it was 34.8 µM; in the assay on MCF7 breast, 21.2 µM; in the assay on MDA-MB-435, 27.6 µM; with MDA-N, 28 µM; in the assay on NCI-H226 lung, 47.9 µM. Also, the concentration for total growth inhibition (TGI) in the assay on OVCAR-8 ovarian came out at 29.5 µM; in the assay on RPMI-8226 leukemia, 7.56 µM; with SK-MEL-5 melanoma it was 24.8 µM; in the assay with SK-OV-3 ovarian, 30.8 µM; with SNB-19 CNS, 27.6 µM; in the assay on T-47D breast, 31.4 µM. In the assay with UACC-257 melanoma, this compound came in with a TGI of 32.2 µM.
As to `O=[N+]([O-])c1ccc(N/N=C(\c2ccccc2)c2ccccn2)nc1`, the concentration for total growth inhibition (TGI) with BT-549 breast was 87.1 µM; in the assay with DU-145 prostate it was 36.8 µM; in the assay with HCT-116 colon, 29.8 µM; in the assay on HCT-15 colon, > 28.5 µM; in the assay on HOP-62 NSCLC it was 31.2 µM; in the assay on HOP-92 NSCLC it was 43.8 µM. Further, the total growth inhibition concentration (TGI) with HS 578T breast was 26 µM; in the assay on IGROV1 ovarian, 20.5 µM; with MALME-3M melanoma it was 14.4 µM; in the assay on MCF7 breast it was 8.45 µM; in the assay on MDA-MB-435, > 95.3 µM; in the assay with MDA-N, > 100 µM. In addition, the TGI in the assay on OVCAR-8 ovarian was 23.8 µM; in the assay with RPMI-8226 leukemia it was > 100 µM; in the assay with SK-MEL-5 melanoma, 26.5 µM; in the assay with SK-OV-3 ovarian, 24 µM; in the assay with SNB-19 CNS, > 42.5 µM; with T-47D breast, 26.9 µM. The same compound yielded a TGI in the assay on UACC-257 melanoma of 29.8 µM.
In the case of `CC(C)(C)OC(=O)CC(NC(=O)OC(C)(C)C)C(=O)NC(C(=O)O)C(O)c1ccccc1` (stereo unspecified), the TGI in the assay on BT-549 breast, in the assay on DU-145 prostate, in the assay on HCT-116 colon, in the assay with HCT-15 colon, in the assay on HOP-62 NSCLC and with HS 578T breast was > 100 µM throughout. Also, the TGI in the assay with IGROV1 ovarian, in the assay on MALME-3M melanoma, in the assay with MCF7 breast, with MDA-MB-435, in the assay with MDA-N and in the assay on NCI-H226 lung was > 100 µM each time. In addition, the concentration for total growth inhibition (TGI) in the assay on OVCAR-8 ovarian, in the assay on RPMI-8226 leukemia, with SK-MEL-5 melanoma, in the assay with SK-OV-3 ovarian, in the assay with SNB-19 CNS and in the assay on T-47D breast was > 100 µM in each case. In addition, in the assay with UACC-257 melanoma, the TGI is > 100 µM.
Take `CC1OC(OC2C(CO)OC(O[C@H]3CC[C@@]4(C)C(=CC[C@H]5[C@@H]6C[C@@H]7O[C@](O)(CC[C@H](CO)COC8OC(CO)C(O)C(O)C8O)[C@@H](C)[C@@H]7[C@@]6(C)CC[C@@H]54)C3)C(OC3OC(C)C(O)C(O)C3O)C2O)C(O)C(O)C1O` (stereo partly specified): the TGI in the assay on BT-549 breast, with DU-145 prostate, in the assay on HCT-116 colon, with HCT-15 colon, in the assay on HOP-62 NSCLC and with HOP-92 NSCLC was > 100 µM in each case. Further, the TGI in the assay on HS 578T breast, with IGROV1 ovarian, in the assay with MALME-3M melanoma, in the assay on MCF7 breast, in the assay on MDA-MB-435 and with MDA-N was > 100 µM each time. The total growth inhibition concentration (TGI) in the assay with OVCAR-8 ovarian, with RPMI-8226 leukemia, in the assay on SK-MEL-5 melanoma, in the assay on SK-OV-3 ovarian, with SNB-19 CNS and with T-47D breast was > 100 µM each time. Besides, the TGI with UACC-257 melanoma is > 100 µM.

The values are drawn from PubChem BioAssay (NCI).
